Patent publication US20220096475A1, “METHOD FOR TREATING SARCOIDOSIS-ASSOCIATED PULMONARY HYPERTENSION” (ALTAVANT SCIENCES GmbH, priority 2018, published 2022)

Experiments:
[1] = stability and shelf life of crystalline polymorphs; type: physicochemical; settings: particularly at temperatures of less than 95° C.
TPH1 = molecular target: T1, TPH1 (Mus musculus, UniProt P17532); settings: amorphous form; cited from earlier work
T1 construct: from tissue; host or cells: mice (in vivo)
T1 sequence (P17532 1-447): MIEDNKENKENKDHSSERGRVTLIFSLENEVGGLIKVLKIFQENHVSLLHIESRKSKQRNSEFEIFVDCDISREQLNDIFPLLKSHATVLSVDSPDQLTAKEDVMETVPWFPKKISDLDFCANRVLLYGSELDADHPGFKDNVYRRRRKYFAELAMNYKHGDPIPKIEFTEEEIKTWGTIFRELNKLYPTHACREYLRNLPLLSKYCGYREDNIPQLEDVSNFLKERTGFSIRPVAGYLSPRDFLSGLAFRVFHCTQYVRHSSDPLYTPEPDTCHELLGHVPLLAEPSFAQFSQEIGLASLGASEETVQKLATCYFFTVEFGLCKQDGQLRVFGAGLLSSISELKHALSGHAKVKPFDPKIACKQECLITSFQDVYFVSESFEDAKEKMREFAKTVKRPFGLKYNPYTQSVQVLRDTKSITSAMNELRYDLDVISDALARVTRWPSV

| Compound | stability and shelf life compared to the crystalline Form 1 polymorph [1] | efficacy in inhibiting TPH1 in mice (TPH1) |
| --- | --- | --- |
| CCOC(=O)[C@@H]1CC2(CCN(c3cc(O[C@H](c4ccc(Cl)cc4-c4ccccc4)C(F)(F)F)nc(N)n3)CC2)CN1 [crystalline Form 3 polymorph, (S)-ethyl 8-(2-amino-6-((R)-1-(5-chloro-[1,1′-biphenyl]-2-yl)-2,2,2-trifluoroethoxy)pyrimidin-4-yl)-2,8-diazaspiro[4.5]decane-3-carboxylate] | substantially greater stability and shelf life |  |
| CCOC(=O)[C@@H]1CC2(CCN(c3cc(O[C@H](c4ccc(Cl)cc4-c4ccccc4)C(F)(F)F)nc(N)n3)CC2)CN1 [Compound A, (S)-ethyl 8-(2-amino-6-((R)-1-(5-chloro-[1,1′-biphenyl]-2-yl)-2,2,2-trifluoroethoxy)pyrimidin-4-yl)-2,8-diazaspiro[4.5]decane-3-carboxylate] |  | demonstrated |
